Reference: patent US20030054524A1, “Method of increasing the fatty acid content in plant seeds” (priority 1999, published 2003)

Key:
[1] = test system: enzymes of the KASI type; details: in the presence of 5 μM cerulenin; cited from earlier work
[2] = target: T1, clKASIV (Cuphea lanceolata, UniProt Q949J2); experiment: Enzyme assay: sensitivity of recombinant clKASIV to cerulenin; type: biochemical; details: condensation assay with [2-14C]-malonyl-ACP
T1 sequence (Q949J2 106-538): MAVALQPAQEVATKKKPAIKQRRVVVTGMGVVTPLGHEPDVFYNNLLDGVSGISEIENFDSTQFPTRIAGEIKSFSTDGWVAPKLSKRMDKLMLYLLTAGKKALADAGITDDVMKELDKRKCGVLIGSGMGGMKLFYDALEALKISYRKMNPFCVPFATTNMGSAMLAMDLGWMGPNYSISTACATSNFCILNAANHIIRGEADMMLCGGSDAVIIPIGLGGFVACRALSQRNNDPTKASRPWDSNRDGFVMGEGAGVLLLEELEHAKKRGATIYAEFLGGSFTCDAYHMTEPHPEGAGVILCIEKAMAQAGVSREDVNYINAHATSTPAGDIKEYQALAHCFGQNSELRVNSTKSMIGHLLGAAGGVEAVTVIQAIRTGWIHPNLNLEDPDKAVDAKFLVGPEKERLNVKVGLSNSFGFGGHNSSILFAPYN
Description: The substrate specificities of the recombinant KASII and KASIV enzymes was investigated by incorporating radioactivity of [2-1^4C]-malonyl-ACP into the condensation products. The batch ([…]) contained 100 mM sodium phosphate, pH 7.6, 10 µM acyl-ACP with a specific chain length, 7.5 μM [2-^14C]-malonyl-ACP (0.74 MBq/mmol), 2 mM NADPH, 2 mM DTT, 0.6 Fkat of affinity-purified recombinant GST-β-ketoacyl-ACP-reductase fusion protein of C. lanceolata (Klein et al. (1992) Mol. Gen. Genet. 233:122-128) and 2 μg of the recombinant KASII/IV preparation. The β-hydroxyacyl-ACPs that were synthesized were precipitated, washed and dissolved as described by Winter et al. (1997) Biochem. J 321:313-318 and then separated by a 2.5 M urea-PAGE. After transfer to an Immobilon P membrane by electroblotting at 0.8 mA/cm for one hour, the reaction products were visualized by autoradiography after five-day exposure on an x-ray film (Hyperfilm MP, Amersham, Braunschweig, Germany).
In the assays, saturated acyl-ACP (C4 through C16) was added to the reaction mixture together with [2- ^4C]-malonyl-ACP and was incubated for ten minutes. Incorporation of the radioactivity from [2- ^4C]-malonyl-ACP into the O-ketoacyl-ACP product, which was reduced to β-hydroxyacyl-ACP for the analysis, was determined. […]

C/C=C/C/C=C/CCC(=O)[C@H]1O[C@H]1C(N)=O [cerulenin, Cerulenin]
inactivation of enzymes of the KASI type by cerulenin [1]: completely inactivated | IC50 [2]: 20 µM
